In ChEMBL document CHEMBL1135200, “Inhibition of the U1A-RNA complex by an aminoacridine derivative” (Bioorg Med Chem Lett, 2002):

How the values were obtained:
Nucleic Acid [1] = test: Ability to inhibit the formation of the U1A-stem loop 2 RNA complex using gel mobility shift assay; format: nucleic-acid assay
[2] = Ability to inhibit formation of the TatTAR complex by binding to the closing GC or CG base pair and adjacent nucleotides of loops in the TAR RNA.
Nucleic Acid [3] = test: Ability to inhibit the […]-RNA complex formation; format: nucleic-acid assay

| SMILES | IC50 (Nucleic Acid [1]) | IC50 [2] | IC50 (Nucleic Acid [3]) |
| --- | --- | --- | --- |
| Nc1nc(N)c2c(N)c(N)ccc2n1 | 10000 µM | 10 µM |  |
| COc1ccc2nc3cc(Cl)ccc3c(NCCCN(CCCN)CCCCN)c2c1 | 1 µM | 22 µM | 1 µM |
